Patent US20170367390A1, “USE OF ELLAGIC ACID DIHYDRATE IN FOOD PRODUCTS AND NUTRACEUTICALS” (HALO LIFE SCIENCE, LLC, priority 2014, published 2017)

Key:
[1] = Saturation of test compound in 100% DMSO; assay type: physicochemical
Experimental: General Procedure. For Examples 2 through 7, all test compounds of interest were initially dissolved in 100% DMSO. Estimated saturation occurred at approximately 4 mM for ellagic acid dihydrate. The saturated solution was diluted 1:10 in 1×PBS; creating a 100× stock solution of 400 μM ellagic acid dihydrate. Working concentrations (1×), 4 μM, and more dilute concentrations of ellagic acid dihydrate were created by 1:10 dilutions into 0.1% DMSO. The resulting six dilutions ranged from 4 μM to 0.04 nM. Dose curves were analyzed using either Harmony software on the Operetta (Perkin Elmer) or Excel (Microsoft) for flow cytometry, which was performed on a BD Accuri (BD Biosciences).

[2] = target: glucose oxidase (Aspergillus niger, UniProt P13006); test: Direct interaction with glucose, glucose oxidase based glucometer on serum; assay type: biochemical; conditions: incubated with serum at room temperature five minutes or overnight at 37° C.
glucose oxidase, sequence (P13006 17-605, species assumed): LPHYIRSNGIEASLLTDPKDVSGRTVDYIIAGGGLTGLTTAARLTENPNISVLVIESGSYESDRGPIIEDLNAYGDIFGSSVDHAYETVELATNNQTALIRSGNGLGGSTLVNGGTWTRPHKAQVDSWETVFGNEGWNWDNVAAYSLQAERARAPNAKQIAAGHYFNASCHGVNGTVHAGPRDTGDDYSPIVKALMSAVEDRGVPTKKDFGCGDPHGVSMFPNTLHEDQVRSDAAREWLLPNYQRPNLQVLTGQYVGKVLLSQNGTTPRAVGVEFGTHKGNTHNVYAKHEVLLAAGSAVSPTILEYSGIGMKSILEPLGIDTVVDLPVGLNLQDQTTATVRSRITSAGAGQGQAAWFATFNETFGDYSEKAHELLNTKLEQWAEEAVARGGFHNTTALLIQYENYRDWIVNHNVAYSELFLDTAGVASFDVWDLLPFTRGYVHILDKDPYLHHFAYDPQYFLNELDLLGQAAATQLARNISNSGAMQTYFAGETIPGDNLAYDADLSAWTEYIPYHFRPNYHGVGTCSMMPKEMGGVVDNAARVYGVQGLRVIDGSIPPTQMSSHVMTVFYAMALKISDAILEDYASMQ
Experimental: Ellagic acid dihydrate was analyzed for direct interaction with glucose. A glucose oxidase based glucometer was used to measure serum glucose. Ellagic acid dihydrate was incubated with serum at room temperature for five minutes or overnight at 37° C. […] Ellagic acid dihydrate is not believed to directly interact with glucose.

[3] = system: MEF cells; test: Glucose uptake, 2-NBDG labeling, high-content imaging (Operetta), MEFs; assay type: cell-based, mouse
Experimental: Increased glucose uptake was indicated as increasing signal of 2-NBDG ([…]) in cells. Glucose uptake assays were carried out in a final incubation volume of 50 μl consisting of, 2-NBDG), (100 μM) in 1× Phosphate Buffered Saline w/Ca+, Mg+ (PBS++). The same buffer was used for washing cells. Insulin was used as a positive control. All testing compounds were prepared in 10% DMSO and diluted 1:100 for a final concentration of 0.1% DMSO (vehicle). Cells were culture to 70-90% confluence and then washed twice with PBS++. Cells were incubated for 30 minutes at 37° C. in PBS++. Nuclear stain, HCS CellMask stain (blue, Invitrogen), and/or testing compounds (ellagic acid dihydrate, insulin, or vehicle) were added. Cells were incubated for 30 min at 37° C. Cells were washed twice with PBS++ and incubated with 2-NBDG for 10 minutes. Cells were washed thrice with PBS++ and then imaged in PBS++. Alternatively, the final PBS wash was removed and cells were incubated with Accutase (Invitrogen) for 10 min at 37° C., neutralized with 10% FBS in 1×PBS, and analyzed by flow cytometry. An additional experiment was performed to measure glucose uptake in C2Cl2 cells exposed to metformin, insulin and ellagic acid dihydrate 2 (batch 2). FIG. 5C. Glucose uptake in ellagic acid dihydrate treated cell culture was measured and compared to glucose uptake under insulin or ellagic acid treatment. […] Flow cytometry results were run in triplicate with 1000 cells per batch.

[4] = system: GLUT4-GFP; test: Localization of glucose transporter GLUT4-GFP, time-lapse confocal microscopy in C2C12; assay type: cell-based, mouse
Experimental: Induction of glucose transporter, GLUT-4, in ellagic acid dihydrate treated cell cultures was studied. Cellular assays were performed using mouse myoblast C2C12 cells. The cells were infected with a fusion glucose transporter 4 green fluorescent protein (GLUT4-GFP). This protein allows the visualization of GLUT4 by imaging the GFP under fluorescent time-lapse microscopy. Frames were compiled to produce time-lapse images of cellular changes with no treatment or treatment with insulin. The localization of glucose transporter (GLUT4-GFP) was performed in final incubation volume of 505 μL, consisting of 500 μl of Hank's Buffer (Invitrogen) and 5 μl of tested compounds. Insulin was used as positive controls and vehicle (0.1% DMSO) as the negative control. All test compounds were prepared in 10% DMSO and diluted 1:100 for a final concentration of 0.1% DMSO (vehicle). The cells were rinsed in Hank's Buffer thrice and then incubated in Hank's Buffer at 37° C. for one hour. The test compounds were added (ellagic acid dihydrate, insulin, or vehicle) and the cells were imaged using laser-confocal microscopy (Leica TCS SP5 X) with FITC fluorescent filters to determine changes in GLUT4-GFP localization. Time-lapse images (TIF) were collected and post-processed using Image-J (NIH) for video construction.

[5] = system: p44/42 MAPK; test: p44/42 MAPK:Phos p44/42 MAPK ratio by immunocytochemistry, high-content imaging in C2C12; assay type: cell-based, mouse; conditions: serum starved C2C12, 30 minutes; 400 nM, 0.04 nM
Experimental: Stimulation of AKT pathways and MAPK pathways in ellagic acid dihydrate, metformin, and insulin treated cell cultures was performed. Insulin stimulates glucose uptake into cells by increasing GLUT4 activation, and AKT, specifically phos-AKT, signaling alters GLUT4 translocation. […] Cellular assays were performed using mouse myoblast C2C12 cells. Relative protein levels of AKT:phos AKT and p44/42 MAPK:phos p44/42 MAPK were determined.
Serum starved cells (1 hr) were treated for 30 minutes with each of the tested compounds. Ratios of phosphorylated to non-phosphorylated proteins were determined using immunocytochemistry labeling (anti-AKT, anti-Phos AKT; or anti-p44/42 MAPK, anti-Phos p44/42 MAPK) on a high-content imaging system (Operetta, Perkin Elmer) using the fluorescent signal of anti-rabbit Alexa 647. Increased phosphorylation is indicated as decrease in signal of AKT:Phos AKT ratio (log 2 scale) and p44/42 MAPK:Phos p44/42 MAPK ratio (log 2 scale) relative to vehicle treated cells.

[6] = Weight loss and blood glucose in female SWV mice with STZ induced diabetes, 30 days gavage; assay type: in vivo, mouse; conditions: STZ diabetic mice; predicted from in vitro data of Example 5
Experimental: Weight loss and blood glucose in diabetes induced mice treated with ellagic acid was determined and weight loss and blood glucose in mice treated with ellagic acid dihydrate may be determined by the following procedures. Induction of Diabetes: Diabetes is induced in mice by intraperitoneal injection with Streptozotocin (STZ 40 mg/kg) daily for five days. The mice are considered hyperglycemic when the glucose level of each dam is above 200 mg/dL. The mice are fasted for 4 hours before STZ injection and glucose measurement. Treatment: The mice are treated daily for thirty days with ellagic acid or control in the form of a supplemental pill homogenized and suspended in 25% water solution of Cremophor EL. The mice are treated for one month via gavage using the human equivalent dose of 122.4 mg pill/kg of subject (40.6 mg ellagic acid/kg of the subject), the human equivalent does of 40.6 mg ellagic acid/kg of the subject using 98% pure ellagic acid, or control vehicle (25% water solution of Cremophor EL). The human equivalent dose is calculated as described in Example 8. Treatments would start two weeks after the last STZ injection in which hyperglycemia is confirmed in the diabetic mice. The mice would be weighed daily and glucose levels would be measured in fasted animals every five days.

With `O.O.O=c1oc2c(O)c(O)cc3c(=O)oc4c(O)c(O)cc1c4c23` [ellagic acid dihydrate] the Estimated saturation [1] was “approximately 4 mM”, the “inhibition of the glucose oxidase reaction” value [2] was “no inhibition of the glucose oxidase reaction was observed” and the “dose effect for increasing glucose uptake” value [3] was “dose effect for increasing glucose uptake”. The “glucose uptake (2-NBDG signal)” value ([3]; versus vehicle (Neg, 0.1% DMSO)) was “significantly greater than vehicle treated (Neg, 0.1% DMSO) or Insulin treated cells”, the “timing of GLUT4-GFP/membrane process compared with insulin” value ([4]; C2C12, 4000 nM) was “slightly delayed” and the GLUT4-GFP localization ([4]; C2C12, 4000 nM exposure) was “decrease in nuclear GLUT4-GFP”. The “ruffling of filopodia at the surface of the cell” value ([4]; C2C12, 4000 nM exposure) was “rapid ruffling of filopodia at the surface of the cell”, the “p44/42 MAPK:Phos p44/42 MAPK ratio relative to vehicle” value [5] was “increase in p44/42 MAPK” and the “mean glucose level values compared to mice treated with ellagic acid” value [6] was “lower mean glucose level values”. For the same compound, the “weight loss compared to mice treated with ellagic acid” value [6] was “greater decrease in weight loss”.
